Experimental data published in patent publication US6121277A, “Camptothecin-skeleton compounds isolated from Mappia foetida and the use thereof as syntones for novel medicaments as well as therapeutical agents” (Indena S.p.A., priority 1996, dated 2000).
Read-outs that look alike come from different tables or passages of the source.

Tests used:
HCT116 = experiment: Cytotoxic activity against colon carcinoma line HCT116; format: cell-based; settings: Homo sapiens
From the text: (§1) Compounds 1 have cytotoxic activity against tumor cell lines. For example, Table 1 reports the cytotoxic activity against a colon carcinoma line (HCT116) and against the same line resistant to the most common chemotherapeutics (HCT116/VM46).

HCT116/VM46 = experiment: Cytotoxic activity against the same line resistant to the most common chemotherapeutics (HCT116/VM46); format: cell-based; settings: Homo sapiens
From the text: as §1

Row | Compound | IC50 (HCT116; HCT-116, read-out: IC50 Line HCT116) [µM] | IC50 (HCT116/VM46; HCT-116/VM46, read-out: IC50 Line HCT116/VM46) [µM] | IC50 (HCT116; HCT-116, colon carcinoma line HCT116, read-out: IC50 Line HCT116) [µM] | IC50 (HCT116/VM46; HCT-116/VM46, HCT116/VM46, resistant to the most common chemotherapeutics, read-out: IC50 Line HCT116/VM46) [µM]
1 | CC[C@@]1(O)C(=O)OCc2c1cc1n(c2=O)Cc2cc3ccccc3nc2-1 [Camptothecin, camptothecin] | 0.0105 | 0.0967 | – | –
2 | CCC(O)(C(=O)O)c1cc2n(c(=O)c1COC(C)=O)Cc1cc3ccccc3nc1-2 (stereo not shown) [17-Acetyl-camptothecinic acid, 17-acetyl-camptothecinic acid] | – | – | 0.0082 | 0.0253
